Data as given in patent US20090062243A1, “Lupane-Type Triterpenoids Modified at 30-Position and Analogues Thereof” (ADVANCED LIFE SCIENCES, INC., priority 2007, published 2009).

Experiments:
Daoy = assay: MTS cell viability assay, Daoy; format: cell-based; settings: Homo sapiens, Daoy, cells incubated 72 h
Description: (§1) Cells were plated, the evening before treatment, for each treatment on 96-well plates (1×10^4 cells/well) in 100 μL volume per well. Analog solutions were prepared by diluting each test compound in DSMO (10 mM) with the appropriate cell growth media for each individual cell line, or in “Universal Media” if several cell lines were to be assayed in parallel, immediately prior to cell treatment. Universal Media consisted of 5 mL sodium pyruvate (100× liquid stock, MediaTech), 5 mL glucose (100×, 45% liquid stock, MediaTech), 5 mL Penicillin/Streptomycin (100× liquid stock, MediaTech), 10 mL sodium bicarbonate (50× liquid stock, MediaTech), 25 mL Fetal Calf Serum, 1.25 mL insulin (4 mg/mL, Gibco) and […] RPMI media with 2 mM L-glutamine for a total volume of 500 mL.
(§2) Cells were treated by aspirating plating media from each well and adding 80 μL of betulinic acid (control) or each analog solution in serial dilutions to the adherent cells. All treatments were performed in triplicate. Growth media (80 μL) was added to 3 blank wells (no cells) to measure background from the growth media. Growth media alone (no DMSO or test compound) was added to 3 wells containing cells to measure the baseline MTS activity. Vehicle (DMSO) control in serial dilutions, added to cells, was also included to monitor basal toxicity from DMSO. Cells were incubated at 37° C. for 72 h, or 120 h for the OVCAR cell lines. MTS reagent (per 96-well plate) were prepared by combining 2 mL of MTS working solution (Cell Titer AQueous Non-Radioactive Cell Proliferation Assay, Promega, cat#G1112), 100 μL of 0.92 mg/mL phenazine methosulfate/Dulbecco's PBS and 2.1 mL growth media. MTS reagent (40 μL) were added to each well and incubated at 37° C. for 1.5 to 4 h. Plates were gently shaken by hand until solution in each well appeared homogenous. Absorbances at 490 nm were measured on a Wallac Victor II plate reader at multiple time points following the addition of MTS reagent for each plate. Triplicate absorbance (490 nm) measurements were averaged following background (no cell) subtraction for each drug concentration. Percent Cell Viability was calculated for each drug concentration using the following equation:
(§3) {[Absorbance(analog treated)]/[Absorbance(DMSO treated)]}×100%
(§4) Cytotoxicity dose response for the triterpenoid derivatives synthesized in SK-MEL-2 (melanoma), A-375 (melanoma), Daoy (glioblastoma), LN-229 (glioblastoma), OVCAR-3 (ovarian carcinoma), HT-29 (colon carcinoma), MCF-7 (breast carcinoma) cell lines using the standard MTS assay is summarized in Table 1. In Table 1, compounds 22a-d and compounds 23a-c refer to structures 22 and 23 in Scheme 5, respectively. Compounds 24aa-an and 24ba-bq refer to structure 24 in Scheme 6. Compounds 26a-e refer to structure 26 in Scheme 6. Compounds 36a-c refer to structure 36 in Scheme 10.

SK-MEL-2 (melanoma) = assay: MTS cell viability assay, SK-MEL-2; format: cell-based; settings: Homo sapiens, SK-MEL-2, cells incubated 72 h
Description: as §1, §2, §3, §4

C=C(CO)[C@@H]1CC[C@]2(CO)CC[C@]3(C)[C@H](CC[C@@H]4[C@@]5(C)CC[C@H](O)C(C)(C)[C@@H]5CC[C@]43C)[C@@H]12 [Compound 8a]
IC50 (Daoy): > 75 µM
IC50 (SK-MEL-2 (melanoma)): > 75 µM

C=C(C(=O)O)[C@@H]1CC[C@]2(C(=O)O)CC[C@]3(C)[C@H](CC[C@@H]4[C@@]5(C)CCC(=O)C(C)(C)[C@@H]5CC[C@]43C)[C@@H]12 [Compound 11]
IC50 (Daoy): > 75 µM
IC50 (SK-MEL-2 (melanoma)): > 75 µM

C=C(CO)[C@@H]1CC[C@]2(COC(C)=O)CC[C@]3(C)[C@H](CC[C@@H]4[C@@]5(C)CCC(=O)C(C)(C)[C@@H]5CC[C@]43C)[C@@H]12 [Compound 12]
IC50 (Daoy): > 45 µM
IC50 (SK-MEL-2 (melanoma)): > 45 µM

C=C(C(=O)O)[C@@H]1CC[C@]2(COC(C)=O)CC[C@]3(C)[C@H](CC[C@@H]4[C@@]5(C)CCC(=O)C(C)(C)[C@@H]5CC[C@]43C)[C@@H]12 [Compound 13a]
IC50 (Daoy): > 45 µM
IC50 (SK-MEL-2 (melanoma)): > 45 µM

C=C(C(=O)O)[C@@H]1CC[C@]2(CO)CC[C@]3(C)[C@H](CC[C@@H]4[C@@]5(C)CCC(=O)C(C)(C)[C@@H]5CC[C@]43C)[C@@H]12 [Compound 13b]
IC50 (Daoy): > 75 µM
IC50 (SK-MEL-2 (melanoma)): > 75 µM

C=C(C(=O)O)[C@@H]1CC[C@]2(CO)CC[C@]3(C)[C@H](CC[C@@H]4[C@@]5(C)CC[C@H](O)C(C)(C)[C@@H]5CC[C@]43C)[C@@H]12 [Compound 15]
IC50 (Daoy): > 75 µM
IC50 (SK-MEL-2 (melanoma)): > 75 µM

C=C(COC(C)=O)[C@@H]1CC[C@]2(CO)CC[C@]3(C)[C@H](CC[C@@H]4[C@@]5(C)CCC(=O)C(C)(C)[C@@H]5CC[C@]43C)[C@@H]12 [Compound 16]
IC50 (Daoy): > 45 µM
IC50 (SK-MEL-2 (melanoma)): 43 µM

C=C(COC(C)=O)[C@@H]1CC[C@]2(C(=O)O)CC[C@]3(C)[C@H](CC[C@@H]4[C@@]5(C)CCC(=O)C(C)(C)[C@@H]5CC[C@]43C)[C@@H]12 [Compound 17a, 30-O-acetyl betulonic acid]
IC50 (Daoy): > 45 µM
IC50 (SK-MEL-2 (melanoma)): > 45 µM

C=C(CO)[C@@H]1CC[C@]2(C(=O)O)CC[C@]3(C)[C@H](CC[C@@H]4[C@@]5(C)CCC(=O)C(C)(C)[C@@H]5CC[C@]43C)[C@@H]12 [Compound 17b]
IC50 (Daoy): > 45 µM
IC50 (SK-MEL-2 (melanoma)): > 45 µM

C=C(COC(C)=O)[C@@H]1CC[C@]2(C=O)CC[C@]3(C)[C@H](CC[C@@H]4[C@@]5(C)CCC(=O)C(C)(C)[C@@H]5CC[C@]43C)[C@@H]12 [Compound 18a]
IC50 (Daoy): > 45 µM
IC50 (SK-MEL-2 (melanoma)): > 45 µM

C=C(CO)[C@@H]1CC[C@]2(C=O)CC[C@]3(C)[C@H](CC[C@@H]4[C@@]5(C)CCC(=O)C(C)(C)[C@@H]5CC[C@]43C)[C@@H]12 [Compound 18b]
IC50 (Daoy): > 75 µM
IC50 (SK-MEL-2 (melanoma)): > 75 µM

C=C(COC(C)=O)[C@@H]1CC[C@]2(C(=O)O)CC[C@]3(C)[C@H](CC[C@@H]4[C@@]5(C)CC[C@H](O)C(C)(C)[C@@H]5CC[C@]43C)[C@@H]12 [Compound 19a]
IC50 (Daoy): > 45 µM
IC50 (SK-MEL-2 (melanoma)): > 45 µM

C=C(CO)[C@@H]1CC[C@]2(C(=O)O)CC[C@]3(C)[C@H](CC[C@@H]4[C@@]5(C)CC[C@H](O)C(C)(C)[C@@H]5CC[C@]43C)[C@@H]12 [Compound 19b]
IC50 (Daoy): > 45 µM
IC50 (SK-MEL-2 (melanoma)): > 45 µM

C=C(C=O)[C@@H]1CC[C@]2(C=O)CC[C@]3(C)[C@H](CC[C@@H]4[C@@]5(C)CCC(=O)C(C)(C)[C@@H]5CC[C@]43C)[C@@H]12 [Compound 20]
IC50 (Daoy): 34 µM

C=C(CNCCO)[C@@H]1CC[C@]2(COC3CCCCO3)CC[C@]3(C)[C@H](CC[C@@H]4[C@@]5(C)CCC(=O)C(C)(C)[C@@H]5CC[C@]43C)[C@@H]12 (stereo partly drawn) [Compound 22a]
IC50 (Daoy): 21 µM
IC50 (SK-MEL-2 (melanoma)): 17 µM

C=C(CNCCO)[C@@H]1CC[C@]2(COC3CCCCO3)CC[C@]3(C)[C@H](CC[C@@H]4[C@@]5(C)CCC(O)C(C)(C)[C@@H]5CC[C@]43C)[C@@H]12 (stereo partly drawn) [Compound 23a]
IC50 (Daoy): 54 µM
IC50 (SK-MEL-2 (melanoma)): 16 µM

C=C(CNCCO)[C@@H]1CC[C@]2(CO)CC[C@]3(C)[C@H](CC[C@@H]4[C@@]5(C)CCC(O)C(C)(C)[C@@H]5CC[C@]43C)[C@@H]12 (stereo partly drawn) [Compound 23b]
IC50 (Daoy): 35 µM
IC50 (SK-MEL-2 (melanoma)): 15 µM
